# Key:
# E. coli strains = experiment: Growth inhibition of E. coli strains grown in the presence of 3-HP; format: cell-based
# H. elongata ACCase = experiment: Salt effect on ACCase from the halophile; format: biochemical, Halomonas elongata; conditions: FIG. 4, compared to the E. coli ACCase
# Method: Concentrations of products were measured using the Nanodrop spectophotometer.
Compound,3-HP level at which growth inhibition has been demonstrated (E. coli strains),effect of salt on H. elongata ACCase (H. elongata ACCase)
"O=C(O)CCO [3-HP, 3-hydroxypropionic acid]",≥ 20 g/L,–
N.O=C(O)CCO [NH4-3-HP],–,less affected
"Cl.N [NH4Cl, reference compound]",–,less affected
